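Test compounds were applied to cells in 96-well plates for 48 hours at 5 doses. GI50 is the concentration that inhibits growth by half. TGI: total growth inhibition.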
Assays:
Test in all cases: NCI anticancer screen, dose series, 48 h
HL-60(TB) leukemia = test system: HL-60(TB) leukemia
MOLT-4 leukemia = test system: MOLT-4 leukemia
HOP-92 NSCLC = test system: HOP-92 NSCLC
SR leukemia = test system: SR leukemia
MCF7 breast = test system: MCF7 breast
SF-295 CNS = test system: SF-295 CNS
HCT-116 colon = test system: HCT-116 colon
SF-268 CNS = test system: SF-268 CNS
SK-OV-3 ovarian = test system: SK-OV-3 ovarian
SF-539 CNS = test system: SF-539 CNS

Compound	TGI (HL-60(TB) leukemia) [µM]	TGI (MOLT-4 leukemia) [µM]	TGI (HOP-92 NSCLC) [µM]	TGI (SR leukemia) [µM]	TGI (MCF7 breast) [µM]	TGI (SF-295 CNS) [µM]	TGI (HCT-116 colon) [µM]	TGI (SF-268 CNS) [µM]	TGI (SK-OV-3 ovarian) [µM]	TGI (SF-539 CNS) [µM]	GI50 (HL-60(TB) leukemia) [µM]	GI50 (SF-268 CNS) [µM]	GI50 (SK-OV-3 ovarian) [µM]	GI50 (MOLT-4 leukemia) [µM]	GI50 (HOP-92 NSCLC) [µM]	GI50 (SR leukemia) [µM]	GI50 (SF-539 CNS) [µM]	GI50 (SF-295 CNS) [µM]	GI50 (MCF7 breast) [µM]
O=c1[nH]nc(NCc2ccccc2)c2nnn(Cc3ccccc3)c12	> 100	> 100	> 100	> 100	> 100	> 100	> 100	–	–	–	–	–	–	–	–	–	–	–	–
OCC1COc2cc(Cl)c(Cl)cc2O1 (stereo unspecified)	> 10	> 10	–	> 10	> 10	> 10	> 10	> 10	> 10	> 10	–	–	–	–	–	–	–	–	–
Cc1c[n+]2c3ccccc3c3ccccc3c2s1	> 61.6	13.4	47.4	32.3	–	33.5	> 70.1	3.27	> 71.4	16.6	–	–	–	–	–	–	–	–	–
Cc1cccc(Br)[n+]1[O-]	–	> 100	> 100	> 100	> 100	> 100	> 100	> 100	> 100	> 100	–	–	–	–	–	–	–	–	–
NCCSc1cc(O)c2c(c1N)C(=O)c1ccccc1C2=O	66.8	63.8	> 100	73.4	–	> 100	> 100	> 100	> 100	> 100	–	–	–	–	–	–	–	–	–
COc1cc(C2c3cc4c(cc3[C@@H](Nc3cccc(CO)c3)C3COC(=O)[C@H]23)OCO4)cc(OC)c1O (stereo partly specified)	0.343	0.185	13.3	–	26.3	5.05	11.6	14.5	9.04	1.99	–	–	–	–	–	–	–	–	–
COc1cc(OC)cc(-c2ccc(-c3ccc(C(=N)N)cn3)o2)c1	4.38	3.59	2.87	3.96	–	3.46	–	3.62	3.34	2.9	2.12	1.86	1.91	1.74	1.42	1.73	1.55	1.86	–
C=CCN1/C(=C(\C#N)c2nc3ccccc3[nH]2)Sc2c1nc[nH]c2=O	> 100	> 100	> 100	> 100	–	> 100	> 100	> 100	> 100	> 100	–	–	–	–	–	–	–	–	–
CSCC[C@@H]1C(=O)N(C)[C@H](C(C)(C)C)N1C(=O)c1ccccc1	> 100	> 100	> 100	–	> 100	> 100	> 100	> 100	> 100	> 100	–	–	–	–	–	–	–	–	–
CC(=O)c1[nH]c(NC(C)C)c(C(=S)Nc2ccccc2)c1N	> 100	> 100	92.4	76.8	42.2	> 100	64.4	65.9	> 100	> 100	–	–	–	–	–	–	–	–	–
COc1cc2c3cc1Oc1c(O)c(OC)cc4c1C(Cc1ccc(O)c(c1)Oc1ccc(cc1)CC3N(C)CC2)N(C)CC4 (stereo unspecified)	48.4	30.8	24.3	–	–	29.7	22.5	31.9	40.1	5.8	–	–	–	–	–	–	–	–	–
Cc1[nH]c(=O)[nH]c(=O)c1/C=C/C(=O)O (tested in a mixture with another compound)	> 625	> 625	623	–	> 625	> 625	> 625	> 625	> 625	> 625	–	–	–	–	–	–	–	–	–
COc1cc(C(=O)O[C@H](C(=O)NCCCNC(=O)[C@@H](OC(=O)c2cc(OC)cc3c(C)cccc23)[C@]2(C)CO2)[C@]2(C)CO2)c2cccc(C)c2c1	< 0.01	< 0.01	0.15	–	0.219	0.562	–	–	1.98	0.138	< 0.01	< 0.01	0.501	< 0.01	< 0.0113	–	< 0.0268	–	< 0.01
N#CC(N=Nc1ccccc1C(=O)O)C(N)=O (stereo unspecified)	> 100	> 100	–	> 100	–	> 100	> 100	–	–	–	–	–	–	–	–	–	–	–	–
COc1nc2cccc(C(O)c3ccccc3)c2nc1-c1ccccc1 (stereo unspecified)	18	34.7	31.8	12.4	32	17	16.2	33.4	–	8.23	–	–	–	–	–	–	–	–	–
O=C1C=CC2OC(c3ccccc3)C(O)C2O1 (stereo unspecified)	3.29	4.41	10.2	–	16.8	19.6	10.6	15.6	39.5	14.1	–	–	–	–	–	–	–	–	–
COc1cccc(/C=N/NC(=O)CSCC(=O)N/N=C/c2cccc(OC)c2OC)c1OC	> 100	> 100	> 100	> 100	> 100	> 100	> 100	> 100	> 100	> 100	–	–	–	–	–	–	–	–	–
CCC(C)C(N)C(=O)NC(CC(N)=O)C(=O)NC(CC(C)C)C(=O)NC(CCCCN)C(=O)NC(C)C(=O)NC(CC(C)C)C(=O)NC(C)C(=O)NC(C)C(=O)NC(CC(C)C)C(=O)NC(C)C(=O)NC(CCCCN)C(=O)NC(CCCCN)C(=O)NC(C(=O)NC(CC(C)C)C(N)=O)C(C)CC (stereo unspecified)	7.23	38.5	5.38	46.1	–	35.3	29	14.7	33.7	11.3	–	–	–	–	–	–	–	–	–
CC1(C)[C@@H]2CC[C@]1(C)[C@H](OC(=O)/C=C/c1ccccc1)C2	40.5	–	–	–	30.8	36.3	38.1	33.9	84.2	35.9	–	–	–	–	–	–	–	–	–
O=c1c2ccccc2[nH]n1Cc1ccccc1	> 100	> 100	> 100	> 100	> 100	> 100	> 100	> 100	> 100	> 100	–	–	–	–	–	–	–	–	–

Reference: PubChem BioAssay (NCI)
